ChEMBL document CHEMBL1122114

Key:
[1] = biological target: Dihydrofolate reductase (Lactobacillus casei) (UniProt P00381); conditions: Lacticaseibacillus casei
Description: Concentration of inhibitor required to decrease binding of [3H]MTX radioligand to Lactobacillus casei dihydrofolate reductase by 50%.

[2] = biological target: Dihydrofolate reductase (Lactobacillus casei) (UniProt P00381); conditions: Lacticaseibacillus casei; remark: listed apart in the source
Description: Tested for 50% reversible inhibition of Lactobacillus casei dihydrofolate reductase (spectrophotometric assay).

[3] = biological target: T1, Dihydrofolate reductase (Mus musculus) (UniProt P00375); conditions: L1210
T1 sequence (whole entry): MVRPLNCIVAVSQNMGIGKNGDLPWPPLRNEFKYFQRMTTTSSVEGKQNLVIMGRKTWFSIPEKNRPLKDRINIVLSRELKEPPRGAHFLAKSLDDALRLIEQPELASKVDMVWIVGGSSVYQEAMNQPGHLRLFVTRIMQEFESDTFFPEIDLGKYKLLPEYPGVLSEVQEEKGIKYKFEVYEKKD
Description: Concentration of inhibitor to decrease binding of [3H]MTX radioligand to Dihydrofolate reductase from L1210 cells by 50%.

Dihydrofolate reductase (Lactobacillus casei), sequence (P00381 whole entry): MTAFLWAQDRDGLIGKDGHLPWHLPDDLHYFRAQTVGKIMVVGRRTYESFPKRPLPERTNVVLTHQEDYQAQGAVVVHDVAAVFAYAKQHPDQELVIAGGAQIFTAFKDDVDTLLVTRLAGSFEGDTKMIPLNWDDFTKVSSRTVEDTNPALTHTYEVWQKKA

ID50 [1] [nM]	ID50 [2] [nM]	ID50 [3] [nM]	SMILES
45	14	11	CN(Cc1cnc2nc(N)nc(N)c2n1)c1ccc(C(=O)NC(CCCCNC(=O)OCc2ccccc2)C(=O)O)cc1 (centres undefined)
122	23	11	CN(Cc1cnc2nc(N)nc(N)c2n1)c1ccc(C(=O)NC(CCCCN)C(=O)O)cc1 (centres undefined)
31	4.5	9.8	CN(Cc1cnc2nc(N)nc(N)c2n1)c1ccc(C(=O)NC(CCCCNC(=O)CI)C(=O)O)cc1 (centres undefined)
